Source: patent publication US8574831B2, “Mutational profiles in HIV-1 reverse transcriptase correlated with phenotypic drug resistance” (Virco N.V., priority 2000, dated 2013)

System: HIV with mutations in the HIV protease sequence
Experiment: Phenotypic fold resistance to protease inhibitors, protease mutations 84A/84L/84C/54M/54L/54V in a background (Examples 8-13)
Type: cell-based, HIV-1
Procedure: As is the case with the genotyping assays, the recombinant virus assay starts with the amplification of viral target sequences by means of PCR. The amplicons are incorporated into a proviral laboratory clone with sequences homologous to those present in the amplicon deleted. This generates a stock of chimeric viruses. The viruses are tested for their ability to grow in the presence of different concentrations of drugs. Results are obtained by calculating IC50 values for each inhibitor and by reporting the results as IC50 values, expressed in μM concentrations, or by computing the ratio of the IC50 values found for the chimeric virus to the IC50 values found for a wild type susceptible laboratory virus tested in parallel. In the latter case, resistance is expressed as “fold-resistance” compared to a wild-type susceptible HIV-1 strain. In order to meet the need for high-volume testing and a short turn-around time for an individual test, the latest generation of phenotyping assays has undergone further modifications. The use of reporter gene systems for susceptibility testing allows the implementation of laboratory automation and standardization. See Pauwels, et al., J. Virol. Methods 20, 309-321 (1998); Paulous, S., et al., International Workshop on HIV Drug Resistance, Treatment Strategies and Eradication, St. Petersburg, Fla., USA. Abstr. 46 (1997); and Deeks, S. G., et al., 2nd International Workshop on HIV Drug Resistance and Treatment Strategies, Lake Maggiore, Italy. Abstr. 53 (1998).
The ANTIVIROGRAM® assay (Virco) (WO 97/27480) is based on homologous recombination of patient derived HIV-1 gag/PR/RT sequences into a proviral HIV-1 clone correspondingly deleted for the gag/PR/RT sequences. See Pauwels, et al., J. Virol. Methods 20, 309-321 (1998). A similar assay (Phenosense ViroLogic) is based on enzymatic ligation of patient-derived PR/RT sequences into a correspondingly deleted proviral vector carrying an indicator gene, luciferase, inserted in the deleted HIV-1 envelope gene. See Deeks, S. G., et al., 2nd International Workshop on HIV Drug Resistance and Treatment Strategies, Lake Maggiore, Italy. Abstr. 53 (1998). Hertogs et al. Antimicrob. Agents Chemother. 44(3) 568-573 (2000) the disclosures of which are herein incorporated by reference.
The methods of monitoring HIV-1 drug resistance, may also be used in combination with phenotypic drug resistance testing of viral isolates. For example, in one embodiment, a phenotypic test is utilized that is based upon the construction of chimeric HIV-1 strains composed of the protease (PR) and reverse transcriptase (RT) gene sequences which are isolated and amplified from the patient viral RNA. These strains may subsequently be recombined inside CD4+ T cells with a standard laboratory isogenic (HXB2) HIV-1 DNA construct from which the PR/RT gene sequences were deleted. The recombinant strains may then be grown in the presence of the above-mentioned antiviral drugs and the susceptibility of the viral isolates may be expressed as fold-change value of the IC50 of the drug on the patient isolates over the IC50 of the drug on a wild-type laboratory reference strain.

SMILES: Cc1c(O)cccc1C(=O)N[C@@H](CSc1ccccc1)[C@H](O)CN1C[C@H]2CCCC[C@H]2C[C@H]1C(=O)NC(C)(C)C [Nelfinavir, nelfinavir]
- Fold change in IC50 (Table 12, V055199, genotype 10I + 33F + 54M + 90M): 11.7 fold
- Fold change in IC50 (Table 13, V19263, genotype 77I): 0.9 fold
- Fold change in IC50 (Table 13, V20160, genotype WT): 0.7 fold
- Fold change in IC50 (Table 13, V021667, genotype 10I): 1.0 fold
- Fold change in IC50 (Table 13, V030496, genotype 10I + 77I): 0.7 fold
- Fold change in IC50 (Table 13, V048868, genotype 10I + 54L + 71V + 77I + 90M): 15.6 fold
- Fold change in IC50 (Table 13, V048874, genotype 10I + 33F + 54L + 71V + 77I + 90M): 14.5 fold
- Fold change in IC50 (Table 13, V048875, genotype 10I + 33F + 54L + 71V + 77I + 90M): 12.5 fold
- Fold change in IC50 (Table 13, V048877, genotype 10I + 33F + 77I + 90M): 9.4 fold
- Fold change in IC50 (Table 13, V048880, genotype 10I + 33F + 77I + 90M): 4.9 fold
- Fold change in IC50 (Table 13, V052940, genotype 71V): 0.6 fold
- Fold change in IC50 (Table 13, V052942, genotype 10I + 71V): 0.9 fold
- Fold change in IC50 (Table 13, V052943, genotype 10I + 90M): 2.2 fold
- Fold change in IC50 (Table 13, V052944, genotype 10I + 90M): 1.4 fold
- Fold change in IC50 (Table 13, V052945, genotype 77I + 90M): 3.0 fold
- Fold change in IC50 (Table 13, V052946, genotype 71V + 90M): 3.0 fold
- Fold change in IC50 (Table 13, V052947, genotype 10I + 77I + 90M): 8.2 fold
- Fold change in IC50 (Table 13, V052948, genotype 10I + 71V + 90M): 9.0 fold
- Fold change in IC50 (Table 13, V052949, genotype 10I + 71V + 77I + 90M): 8.6 fold
- Fold change in IC50 (Table 13, V052950, genotype 33F): 1.0 fold
- Fold change in IC50 (Table 13, V052951, genotype 33F + 77I): 5.2 fold
- Fold change in IC50 (Table 13, V052953, genotype 10I + 33F + 77I): 0.9 fold
- Fold change in IC50 (Table 13, V052954, genotype 33F + 77I + 90M): 5.9 fold
- Fold change in IC50 (Table 13, V052955, genotype 33F + 71V + 90M): 36.6 fold
- Fold change in IC50 (Table 13, V052968, genotype 10L/I + 33F/L + 54L + 77I): 3.5 fold
- Fold change in IC50 (Table 13, V052969, genotype 10I + 33F + 54L + 90M): 3.4 fold
- Fold change in IC50 (Table 13, V052970, genotype 54L): 1.6 fold
- Fold change in IC50 (Table 13, V052971, genotype 10I + 54L): 1.0 fold
- Fold change in IC50 (Table 13, V052972, genotype 54L + 77I): 3.0 fold
- Fold change in IC50 (Table 13, V052973, genotype 10I + 54L + 77I): 2.8 fold
- Fold change in IC50 (Table 13, V052974, genotype 10I + 54L + 90M): 2.6 fold
- Fold change in IC50 (Table 13, V052975, genotype 10I + 54L + 71V + 90M): 41.3 fold
- Fold change in IC50 (Table 13, V052976, genotype 10I + 54L + 71V + 77I + 90M): 8.9 fold
- Fold change in IC50 (Table 13, V053832, genotype 10I + 33F): 1.6 fold
- Fold change in IC50 (Table 13, V053854, genotype 54L + 71V): 5.9 fold
- Fold change in IC50 (Virco ID 214846, genotype 10I + 33F + 54V + 71V + 77I + 90M, vs mean IC50 of wild type laboratory HIV strain): 43.5 fold
- Fold change in IC50 (Virco ID V021667, genotype 10I, vs mean IC50 of wild type laboratory HIV strain): 1.0 fold
- Fold change in IC50 (Virco ID V030496, genotype 10I + 77I, vs mean IC50 of wild type laboratory HIV strain): 0.7 fold
- Fold change in IC50 (Virco ID V048876, genotype 33F + 54V + 77I + 90M, vs mean IC50 of wild type laboratory HIV strain): 1.6 fold
- Fold change in IC50 (Virco ID V048877, genotype 10I + 33F + 77I + 90M, vs mean IC50 of wild type laboratory HIV strain): 9.4 fold
- Fold change in IC50 (Virco ID V048880, genotype 10I + 33F + 77I + 90M, vs mean IC50 of wild type laboratory HIV strain): 4.9 fold
- Fold change in IC50 (Virco ID V052940, genotype 71V, vs mean IC50 of wild type laboratory HIV strain): 0.6 fold
- Fold change in IC50 (Virco ID V052942, genotype 10I + 71V, vs mean IC50 of wild type laboratory HIV strain): 0.9 fold
- Fold change in IC50 (Virco ID V052943, genotype 10I + 90M, vs mean IC50 of wild type laboratory HIV strain): 2.2 fold
- Fold change in IC50 (Virco ID V052944, genotype 10I + 90M, vs mean IC50 of wild type laboratory HIV strain): 1.4 fold
- Fold change in IC50 (Virco ID V052946, genotype 71V + 90M, vs mean IC50 of wild type laboratory HIV strain): 3.0 fold
- Fold change in IC50 (Virco ID V052947, genotype 10I + 77I + 90M, vs mean IC50 of wild type laboratory HIV strain): 8.2 fold
- Fold change in IC50 (Virco ID V052948, genotype 10I + 71V + 90M, vs mean IC50 of wild type laboratory HIV strain): 9.0 fold
- Fold change in IC50 (Virco ID V052949, genotype 10I + 71V + 77I + 90M, vs mean IC50 of wild type laboratory HIV strain): 8.6 fold
- Fold change in IC50 (Virco ID V052950, genotype 33F, vs mean IC50 of wild type laboratory HIV strain): 1.0 fold
- Fold change in IC50 (Virco ID V052951, genotype 33F + 77I, vs mean IC50 of wild type laboratory HIV strain): 5.2 fold
- Fold change in IC50 (Virco ID V052953, genotype 10I + 33F + 77I, vs mean IC50 of wild type laboratory HIV strain): 0.9 fold
- Fold change in IC50 (Virco ID V052954, genotype 33F + 77I + 90M, vs mean IC50 of wild type laboratory HIV strain): 5.9 fold
- Fold change in IC50 (Virco ID V052955, genotype 33F + 71V + 90M, vs mean IC50 of wild type laboratory HIV strain): 36.6 fold
- Fold change in IC50 (Virco ID V052957, genotype 10I + 33F + 54V + 90M, vs mean IC50 of wild type laboratory HIV strain): 6.9 fold
- Fold change in IC50 (Virco ID V052958, genotype 10I + 33F + 54V + 77I + 90M, vs mean IC50 of wild type laboratory HIV strain): 4.8 fold
- Fold change in IC50 (Virco ID V052959, genotype 10I + 33F + 54V + 77I + 90M, vs mean IC50 of wild type laboratory HIV strain): 7.5 fold
- Fold change in IC50 (Virco ID V052960, genotype 10I + 33F + 54V + 71V + 90M, vs mean IC50 of wild type laboratory HIV strain): 40.7 fold
- Fold change in IC50 (Virco ID V052961, genotype 54V, vs mean IC50 of wild type laboratory HIV strain): 1.0 fold
- Fold change in IC50 (Virco ID V052962, genotype 10I + 54V, vs mean IC50 of wild type laboratory HIV strain): 0.6 fold
- Fold change in IC50 (Virco ID V052963, genotype 54V + 77I + 90M, vs mean IC50 of wild type laboratory HIV strain): 3.2 fold
- Fold change in IC50 (Virco ID V052964, genotype 54V + 71V + 90M, vs mean IC50 of wild type laboratory HIV strain): 3.3 fold
- Fold change in IC50 (Virco ID V052965, genotype 10I + 54V + 77I + 90M, vs mean IC50 of wild type laboratory HIV strain): 15.1 fold
- Fold change in IC50 (Virco ID V052966, genotype 10I + 54V + 71V + 90M, vs mean IC50 of wild type laboratory HIV strain): 55.4 fold
- Fold change in IC50 (Virco ID V052967, genotype 10I + 54V + 71V + 77I + 90M, vs mean IC50 of wild type laboratory HIV strain): 0.8 fold
- Fold change in IC50 (Virco ID V053358, genotype 33F + 54V + 77I + 90M, vs mean IC50 of wild type laboratory HIV strain): 2.1 fold
- Fold change in IC50 (Virco ID V053831, genotype 33F + 54V, vs mean IC50 of wild type laboratory HIV strain): 5.9 fold
- Fold change in IC50 (Virco ID V053832, genotype 10I + 33F, vs mean IC50 of wild type laboratory HIV strain): 1.6 fold
